# PMC7961380, “A Systematic Study of the In Vitro Pharmacokinetics and Estimated Human In Vivo Clearance of Indole and Indazole-3-Carboxamide Synthetic Cannabinoid Receptor Agonists Detected on the Illicit Drug Market” (Molecules, 2021)
# Columns and labels:
# [1] = Chromatographic hydrophobicity index (CHI) log D at pH 7.4; conditions: reversed-phase HPLC, Acquity BEH C18 column
# Experimental: Chromatographic hydrophobicity index (CHI) log D samples (see below) were analysed using high-performance liquid chromatography (HPLC) with a Shimadzu Nexera X2 HPLC coupled to a Shimadzu SPD-30 MA photodiode array detector (PDA) (Shimadzu, Kyoto, Japan). […] The sample chamber was maintained at 25 °C. Gradient elution was performed, with mobile phase (MP) consisting of ammonium acetate in water (10 mM, pH 7.4) (MP A) and acetonitrile (MP B).
# A calibration mix of ten compounds at 10 µg mL^−1 in 1:1 (v/v) water:ACN was used (theophylline, phenyltetrazole, benzimidazole, colchicine, phenyltheophilline, acetophenone, indole, propiophenone, butyrophenone and valerophenone (all Sigma-Aldrich)). Test compounds were prepared at 0.25 mM in 1:1 (v/v) water:ACN. Samples (n = 2 for calibration standards; n = 1 for test compounds) were analysed using UPLC-PDA as described above. Retention times of calibration compounds are used to calculate retention factor (k), which is plotted against literature CHI values for each compound.
# Where tr is the retention time of the analyte and t0 is the retention time of an unretained compound
# Calculation of chromatographic hydrophobicity index (CHI)
# CHI = (𝑘 x slope) − intercept Eqn.4
# Where k is the retention factor of the analyte.
# Calculation of CHI Log D [1]
# Where CHI is the chromatographic hydrophobicity index obtained using Equation 4
# [2] = Metabolic stability, pooled human liver microsome incubations; conditions: pHLM; vs refs 69 (AB-FUBINACA), 54 (5F-MDMB-PINACA)
# [3] = HLM, ref 14 (THJ-018, THJ-2201), 15 (NNEI, MN-18), 106 (NM-2201), 107 (BIM-2201), 108 (STS-135), 16 (AB-PINACA, 5F-AB-PINACA), 54 (5F-MDMB-PINACA), 69 (AB-FUBINACA), 17 (ADB-FUBINACA), 97 (FDU-PB-22, FUB-PB-22), cited from earlier work; for CLint micr / t1/2: 95 (Cumyl-PICA, 5F-Cumyl-PICA), 109 (5F-APP-PICA, 5F-APP-PINACA; for CLint micr: 73 (5F-AMB-PINACA); for t1/2 / CLint: 57 (AMB-4en-PICA); for t1/2: 73 (AMB-PINACA, 5F-AMB-PINACA)
# [4] = system: human hepatocytes (HHeps); conditions: HHeps (asterisk); ref 13 (JWH-122, MAM-2201, Cl-, Br-, I-JWH-122), 105 (AM1220); cited from earlier work
# [5] = cited from earlier work
# [6] = Theoretical fraction unbound for hepatocytes (fuhep) from log D7.4; set-up: species or system human; conditions: calculated from experimental log D7.4 as Kilford et al. (2008), cell volume 3.9 µL/million cells
# Source text: For all MDMB- compounds, and for most (S)-AMB-compounds differences in CLint were within 2.5-fold. […] There are multiple factors which can cause intrinsic clearance by HHeps to differ from HLM [89]. Differences may reflect the relative efficiency of transport of SCRAs and their enantiomers through cell membranes in HHeps and the relative abundance of particular enzymes in HLM and HHeps, targeting different sites of metabolism, particularly carboxylesterases. A dominance of non-CYP enzymes in metabolic clearance can result in CLint being faster in HHeps. […] Glucuronidation is therefore unlikely to cause the differences in clearance rates observed. […] CES-1 is one of the most abundant enzymes in human hepatocytes, present in the endoplasmic reticulum and to a lesser extent in the cytosol. Non-specific binding of drugs to microsomes and hepatocytes results in a lower unbound fraction available to interact with enzymes; differences in binding between HLM and HHep incubations may therefore also cause clearance differences. Non-specific binding may be estimated from log P data. Theoretical fraction unbound for microsomes (fumic) and hepatocytes (fuhep) was calculated using experimental pHLM and pHHep concentrations and incubation volumes, and experimental log D7.4 values, as described by Kilford et al. (2008) with hepatocyte cell volume as 3.9 µL/million cells. […]
# in vitro = conditions: human, plasma, pH 7.4
# Experimental: The pooled plasma used for both plasma stability and plasma binding studies originated from 50 donors, collected as whole blood from donors in the United States at an FDA-approved collection center, processed into plasma by centrifugation and immediately frozen (Innovative Research; Novi, MI, USA) and purchased from Patricell (Nottingham, UK). […] Stock solutions were prepared in DMSO. […] For incubations without inhibitor an equivalent volume of DMSO was included. Plasma mixture was pre-incubated at 37 °C for 5 min. Test compounds (5 µM) and procaine (positive control, 50 µM) were added to pre-warmed plasma mixture containing inhibitors. Incubation volume was 1 mL. Samples were mixed and 80 µL was immediately sampled and quenched into 200 µL ACN spiked with donepezil (internal standard (IS), 50 ng mL^−1). […] Peak area ratio of analyte to IS was used to determine half-lives of test compounds in plasma, both with and without the presence of esterase inhibitors.
# The human plasma used was pooled from 50 donors, and was collected as whole blood from donors in
# the United States at an FDA-approved collection center, processed into plasma by centrifugation and
# The stability of the tested SCRAs, select metabolites and procaine control in pooled human plasma over
# inhibitors bis(4-nitrophenyl) phosphate (BNPP) and phenyl methyl sulphonyl fluoride (PMSF) is
# [7] = set-up: method as in PMID 17712819; conditions: cited from earlier work
structure (smiles),measurement,setting,value
"COC(=O)C(NC(=O)c1nn(CCCCCF)c2ccccc12)C(C)(C)C (centres unmarked) [5F-MDMB-PINACA (2), methyl 2-[1-(5-fluoropentyl)-1H-indazole-3-carboxamido]-3,3-dimethylbutanoate]",chromatographic logD,[1],4.5
same,CLH prediction lower than literature prediction without PPB,[2],4 fold
same,EH prediction lower than literature prediction without PPB,[2],4 fold
same,CLint micr,[3],0.271 mL/min/mg
same,t1/2,[3],3.1 min
same,CLint,[3],256.2 mL/min/kg
"CC(C)C(NC(=O)c1nn(Cc2ccc(F)cc2)c2ccccc12)C(N)=O (centres unmarked) [AB-FUBINACA (8), N-(1-amino-3-methyl-1-oxobutan-2-yl)-1-(4-fluorobenzyl)-1H-indazole-3-carboxamide]",chromatographic logD,[1],2.81
same,CLH prediction lower than literature prediction without PPB,[2],20 fold
same,EH prediction lower than literature prediction without PPB,[2],17 fold
same,CLint micr,[3],0.011 mL/min/mg
same,t1/2,[3],62.6 min
same,CLint,[3],10.5 mL/min/kg
CN1CCCCC1Cn1cc(C(=O)c2cccc3ccccc23)c2ccccc21 (centres unmarked) [AM1220],CLint,[4],169 mL/min/kg
same,t1/2,[4],3.7 min
Cc1ccc(C(=O)c2cn(CCCCCBr)c3ccccc23)c2ccccc12 [Br-JWH-122],CLint,[4],497 mL/min/kg
same,t1/2,[4],2.49 min
Cc1ccc(C(=O)c2cn(CCCCCCl)c3ccccc23)c2ccccc12 [Cl-JWH-122],CLint,[4],502 mL/min/kg
same,t1/2,[4],2.46 min
"Cc1ccc(C(=O)c2cn(CCCCCI)c3ccccc23)c2ccccc12 [I-JWH-122, (1-(5-iodopentyl)-1H-indol-3-yl)(4-methylnaphthalen-1-yl)methanone]",CLint,[4],235 mL/min/kg
same,t1/2,[4],5.26 min
"CCCCCn1cc(C(=O)c2ccc(C)c3ccccc23)c2ccccc21 [JWH-122, (4-methyl-1-naphthyl)-(1-pentylindol-3-yl)methanone]",CLint,[4],1350 mL/min/kg
same,t1/2,[4],0.95 min
"CCCCCn1cc(C(=O)c2ccc(CC)c3ccccc23)c2ccccc21 [JWH-210, 4-ethylnaphthalen-1-yl-(1-pentylindol-3-yl)methanone]",log P,[5],7.5
Cc1ccc(C(=O)c2cn(CCCCCF)c3ccccc23)c2ccccc12 [MAM-2201],CLint,[4],1408 mL/min/kg
same,t1/2,[4],0.88 min
"C=CCCCn1nc(C(=O)NC(C(=O)OC)C(C)(C)C)c2ccccc21 (centres unmarked) [MDMB-4en-PINACA (5), methyl 3,3-dimethyl-2-[1-(pent-4-en-1-yl)-1H-indazole-3-carboxamido] butanoate]",estimated fuhep (theoretical fraction unbound for hepatocytes),[6],0.47
same,chromatographic logD,[1],4.95
CCN(CC)CCOC(=O)c1ccc(N)cc1 [Procaine],half-life,in vitro,6.5 min
same,remaining at 3 h,in vitro,0.03 ± 0.02%
same,remaining at 5 h,in vitro,0.08%
"CCCCCc1cc(O)c2c(c1)OC(C)(C)[C@@H]1CCC(C)=C[C@@H]21 [THC, Δ9-tetrahydrocannabinol]",log P,[5],6.7
same,protein-bound in plasma,[7],95–99%
